Literature values, collected in patent US11980189B2, “Agricultural formulations, uses thereof and processes for preparation thereof” (Valent U.S.A. LLC, priority 2020, dated 2024).

In the case of `COCC(=O)N(c1c(C)cccc1C)C(C)C(=O)OC` (stereo not shown) [metalaxyl, Metalaxyl], the partial water solubility is given as 8,400 parts per million.
